Here are results for 8 molecules from paper PMC9706033 (Journal of Microbiology and Biotechnology, 2021).

The structures appear in SMILES notation. Read-outs that look alike come from different tables or passages of the source.

A short description of data set [1]: Water solubility determination (UPLC of supernatant). The data set is classed as physicochemical. As to the method:
Each sample was centrifuged at 16,000 g for 30 min. Subsequently, the supernatant of each sample was filtered, and the concentration of the compound in the supernatant as a water-soluble component was estimated by UPLC analysis.

The nature of data set [2]: Stability against oxidative degradation in buffer solutions and cell culture medium. It counts as physicochemical. The conditions noted are these: 37°C, up to 72 h, read-out: Half-life, t1/2 (converted).
A short description of data set [3]: DPPH free-radical scavenging assay. Here is the method: DPPH free-radical scavenging capability and ferric reducing antioxidant power (FRAP) assay results were evaluated as described previously by Moon et al.. Hydroxy radical-scavenging assay was measured as described by Su et al.. Vitamin C was used as a positive control. Each assay was measured from 1 min to 30 h. The DPPH radical-scavenging activity was calculated as follows: DPPH radical-scavenging activity (%) = (1-Asample/Ablank) × 100, where Asample is the absorbance in the presence of the sample, and Ablank is the absorbance of the blank. Hydroxy radical-scavenging activity was calculated in accordance with the following formula: Hydroxy radical scavenging activity (%) = (Asample-Acontrol)/(Ablank-Acontrol) × 100, where Asample is the absorbance in the presence of the sample, Acontrol is the absorbance of the blank with H2O2, and Ablank is the absorbance of the blank without H2O2.
On the technique in general: DPPH is a stable violet radical that fades when it is reduced.

The nature of data set [4]: Hydroxyl radical scavenging assay.
Data set [5] relates to B16F10 melanoma cells. The data set is classed as cell-based. The settings on record: mouse, 24 h. Here is the method:
Cell culture and cell viability assay. B16F10 melanoma cells were maintained in DMEM supplemented with 10% FBS, 100 U/ml penicillin, and 100 μg/ml streptomycin. The cells were cultured at 37°C under 5% CO2 in a humidified culture chamber. Cell viability was determined by 3-(4,5-dimethythiazol-2-yl)-2,5-diphenyl tetrazolium bromide (MTT) assay. The cells (6 × 10^3 cells/well) were seeded into 96-well plates and cultured for 24 h. […] After 24 h, the cells were washed with PBS, MTT reagent (0.5 mg/ml) was added to each well, and the cells were incubated at 37°C for 1 h. The supernatant in each well was discarded for the treatment with DMSO, which was used to dissolve the formazan crystals formed from viable cells. After the DMSO treatment, the absorbance of each well was measured at 595 nm using a microplate reader (Epoch, Biotek, USA).

Data set [6] addresses T1, tyrosinase (Mus musculus, UniProt P11344).
T1 construct: endogenous in cells; host or cells: B16F10 melanoma cells, α-MSH-stimulated
T1 sequence (P11344 19-533): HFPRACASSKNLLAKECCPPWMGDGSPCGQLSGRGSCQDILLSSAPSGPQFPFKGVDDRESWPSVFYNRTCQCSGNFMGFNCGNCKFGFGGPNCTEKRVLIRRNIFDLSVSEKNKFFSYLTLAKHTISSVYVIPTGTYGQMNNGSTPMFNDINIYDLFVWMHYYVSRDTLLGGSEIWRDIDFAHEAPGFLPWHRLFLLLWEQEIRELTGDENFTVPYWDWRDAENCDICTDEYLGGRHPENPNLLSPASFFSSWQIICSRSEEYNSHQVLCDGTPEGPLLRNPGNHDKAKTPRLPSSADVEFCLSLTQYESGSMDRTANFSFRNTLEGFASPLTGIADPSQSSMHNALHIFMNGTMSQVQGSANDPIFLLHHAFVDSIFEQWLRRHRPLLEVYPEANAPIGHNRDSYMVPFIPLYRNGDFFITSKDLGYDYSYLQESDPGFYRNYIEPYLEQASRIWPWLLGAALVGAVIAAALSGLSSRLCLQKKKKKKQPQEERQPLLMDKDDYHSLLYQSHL
The data set can be described thus: Cellular tyrosinase activity in α-MSH-stimulated B16F10 melanoma cells. The data set is classed as cell-based. The conditions noted are these: 48 h; for inhibition at 300 µM: B16-F10.

In the next data set the test system is B16F10 cells. The data set can be described thus: Cellular uptake assay (UPLC of medium and cell lysates). The data set is classed as cell-based. The conditions noted are these: after 24 h incubation with B16F10 cells; resveratrol 20 μM, glucosides 100 μM. As to the method:
The cellular uptake assay was conducted following the method described by Moon et al. with minor modification. The B16F10 cells (2 × 10^5 cells/well) were seeded into 6-well plates. […] After 24 h of incubation, the medium was removed, and the cells were washed with PBS and then scraped off. […] The lysate was centrifuged at 16,000 g for 10 min and filtered by a 0.2 μm syringe filter. The cell extracts were analyzed by UPLC.

The conditions of data set [7]: humans; cited from earlier work.
Another data set has as its system polyphenol oxidases. The settings on record: cited from earlier work.
The subject of data set [8] is B16F10 melanoma cells. Kind of data set: Cellular melanin content in α-MSH-stimulated B16F10 melanoma cells. It counts as cell-based. The settings on record: 72 h. As to the method: Cellular melanin content was determined by the method of Park et al. with minor modifications. The cells (5 × 10^4 cells/well) were seeded into 6-well plates and cultured for 24 h. […] Then, the cells were washed with PBS and lysed with lysis buffer, and the supernatant was removed by centrifugation at 16,000 g for 15 min at 4°C. The protein concentration of the supernatant was determined by the Bradford method. The pellet was dissolved in 1 M NaOH and measured at 405 nm using a microplate reader.

On the set-up of data set [9]: method as in PMID 9599270. The settings on record: read-out: Antioxidant activity IC50; cited from earlier work.
The test system of data set [10] is tyrosinase. Also noted: method as in PMID 7765966. The settings on record: tyrosinase of B16 mouse melanoma; cited from earlier work.
The mark [11] stands for this setting: distilled water, sonicated 1 h at room temperature.
[12] abbreviates: Buffer pH 2.0 (hydrochloric acid).
The mark [13] stands for this setting: DMEM cell culture medium without FBS, DMEM (without FBS).
The mark [14] stands for this setting: phosphate-buffered saline, PBS (pH 7.4).
Where [15] appears, read: simulated body fluid, SBF (pH 7.4).
Where [16] appears, read: 100 μM, α-MSH-stimulated B16F10.

Take `OC[C@H]1O[C@H](Oc2ccc(C=Cc3cc(O)cc(O)c3)cc2)[C@H](O)[C@@H](O)[C@@H]1O` [R1, resveratrol-4′-O-α-glucoside]: in [1] (setting [11]), the Water solubility was found to be 515 µg/mL and the “Water solubility (molar)” value came to 1319 µM.
With `Oc1ccc(/C=C/c2cc(O)cc(O)c2)cc1` [resveratrol, trans-3,5,4′-trihydroxystilbene], the Water solubility in data set [1] (setting [11]) came to 36 µg/mL. In [1] (distilled water, sonicated 1 h at room temperature, read-out: Water solubility (molar)), the solubility (in general, how much of the substance goes into solution per volume) at 1 h turned out to be 157.7 µM. The half-life at 10 mM is greater than 72 h in data set [2] (setting [12]); 1.5 h in data set [2] (Buffer pH 9.0 (Tris-HCl)); greater than 72 h in data set [2] (setting [13]); 28 h in [2] (setting [14]); 44 h in data set [2] (setting [15]). Moreover, the EC50 – broadly, the concentration needed to bring the measured effect to its halfway point – in data set [3] (at 30 min) came to 523 µM; in data set [3] (at 5 h) it was 118 µM; in [4] (at 30 min), 138 µM. Further, in the data set on B16F10 melanoma cells [5], the “Effect on growth of B16F10 cells” value is “inhibited the growth of B16F10 cells in a dose-dependent manner”. Also, on tyrosinase [6] (20 μM, compared with cells treated with MSH alone), the “Suppression of tyrosinase activity” value is on record as 70.5%. The “Amount remaining in the extracellular medium” value with B16F10 cells was 59 % of the initial amount. In addition, the Oral bioavailability entry in data set [7] is listed as “less than 1%”. Further, in the data set with polyphenol oxidases, the “Half-life (t1/2) in the reaction of polyphenol oxidases compared with piceid” value was “three times shorter”.
`OC[C@H]1O[C@@H](Oc2cc(O)cc(/C=C/c3ccc(O)cc3)c2)[C@H](O)[C@@H](O)[C@@H]1O` [β-piceid]: the solubility at 1 h in [1] (thermodynamic from solid, distilled water, sonicated 1 h at room temperature, read-out: Water solubility) is 137 µg/mL; in data set [1] (thermodynamic from solid, distilled water, sonicated 1 h at room temperature, read-out: Water solubility (molar)) it was 351 µM. In addition, the half-life at 10 mM in [2] (setting [12]), in data set [2] (Buffer pH 9.0 (Tris-HCl)), in data set [2] (setting [13]), in data set [2] (setting [14]) and in data set [2] (setting [15]) was greater than 72 h in each case. For the same molecule, the EC50 in [3] (at 30 min) is 441 µM; in data set [3] (at 5 h), 699 µM; in [4] (at 30 min) it was 215 µM; in [4] (at 5 h) it was 53.7 µM. Besides, the “Concentration affecting proliferation of B16F10 cells” value in the data set on B16F10 melanoma cells [5] is given as “above 100 μM”. On tyrosinase [6] (setting [16]), the “Suppression of tyrosinase activity” value is recorded as 19.2%. The inhibition (as a rule, the drop in the measured response relative to a control, in per cent) at 300 µM against tyrosinase [6] (α-MSH-stimulated B16F10) came to 29.7%. In addition, the “Suppression of melanin synthesis” value is given as 36.5% in the data set on B16F10 melanoma cells [8] (100 μM) and 46.3% with B16F10 melanoma cells [8] (300 μM). The IC50 (usually the midpoint of a concentration-inhibition curve) in [9] is 198 µM.
In the case of `OC[C@H]1O[C@H](Oc2ccc(O)cc2)[C@H](O)[C@@H](O)[C@@H]1O` [α-arbutin], in the data set on tyrosinase [10], the “Inhibitory activity, times as strong as that of β-arbutin” value is reported as 10 times.
In the case of `OC[C@H]1O[C@H](Oc2cc(O)cc(C=Cc3ccc(O)cc3)c2)[C@H](O)[C@@H](O)[C@@H]1O` [R2, resveratrol-3-O-α-glucoside], in [1], the Water solubility turned out to be 471 µg/mL and the “Water solubility (molar)” value came to 1206 µM.
For `OC[C@H]1O[C@@H](Oc2ccc(O)cc2)[C@H](O)[C@@H](O)[C@@H]1O` [arbutin], the “Suppression of tyrosinase activity” value on tyrosinase [6] (setting [16]) turned out to be 15.8%. 300 µM produced 25.6% inhibition at tyrosinase [6] (α-MSH-stimulated B16F10). The results for the “Suppression of melanin synthesis” value in the data set on B16F10 melanoma cells [8] (100 μM) and in the data set with B16F10 melanoma cells [8] (300 μM) were 51.2% and 74.5%, respectively.
On to `O=C1O[C@H]([C@@H](O)CO)C(O)=C1O` [vitamin C], for which the “Time to scavenge the DPPH radical” value in data set [3] is no more than 30 min.
Regarding `OC[C@H]1O[C@@H](Oc2ccc(/C=C/c3cc(O)cc(O)c3)cc2)[C@H](O)[C@@H](O)[C@@H]1O` [resveratrol-4′-O-β-glucoside], in [9], the IC50 is 1000 µM.
